≈ marks a conversion by molar mass, not a printed value. Where two headings read alike, the source gives them in different places.
Assays:
[1] = tested on: M. tuberculosis H37Rv-LP DprE1 C387S; assay type: cell-based, Mycobacterium tuberculosis
[2] = tested on: M. tuberculosis H37Rv-LP MmpL3 F255L; assay type: cell-based, Mycobacterium tuberculosis
[3] = tested on: M. tuberculosis H37Rv-LP QcrB A396T; assay type: cell-based, Mycobacterium tuberculosis
[4] = tested on: M. tuberculosis H37Rv ATCC 26518 QcrBT313I; assay type: cell-based, Mycobacterium tuberculosis
[5] = tested on: M. tuberculosis H37Rv ATCC 26518 QcrBM342T; assay type: cell-based, Mycobacterium tuberculosis
[6] = tested on: M. tuberculosis resistant isolates LP-0499227-RM; assay type: cell-based, Mycobacterium tuberculosis
[7] = tested on: M. tuberculosis H37Rv ATCC 27294 cydKO; test: microbe, parasite or virus in culture; assay type: cell-based; details: Mycobacterium tuberculosis, 120 h, read-out: MIC, H37Rv ATCC 27294 cydKO
[8] = tested on: M. tuberculosis resistant isolates LP-0497553-RM; test: microbe, parasite or virus in culture; assay type: cell-based, Mycobacterium tuberculosis; details: for MIC: Mycobacterium tuberculosis, 504 h, 24-well agar plates, 3 weeks

Row | SMILES | MIC, DprE1 C387S [1] [µM] | MIC, MmpL3 F255L [2] [µM] | MIC, QcrB A396T [3] [µM] | MIC, H37Rv ATCC 26518 QcrBT313I [4] [µM] | MIC, H37Rv ATCC 26518 QcrBM342T [5] [µM] | MIC on solid medium, LP-0499227-RM1 [6] [µM] | MIC on solid medium, LP-0499227-RM2 [6] [µM] | MIC on solid medium, LP-0499227-RM3 [6] [µM] | MIC on solid medium, LP-0499227-RM4 [6] [µM] | MIC on solid medium, LP-0499227-RM7 [6] [µM] | MIC [7] [µM] | MIC on solid medium, LP-0497553-RM1 [8] [µM] | MIC on solid medium, LP-0497553-RM2 [8] [µM] | MIC on solid medium, LP-0497553-RM4 [8] [µM] | MIC on solid medium, LP-0497553-RM5 [8] [µM] | MIC on solid medium, LP-0497553-RM10 [8] [µM] | MIC on solid medium, LP-0497553-RM11 [8] [µM] | MIC on solid medium, LP-0497553-RM15 [8] [µM] | MIC ([8]; read-out: MIC on solid medium, LP-0497553-RM14) [µM] | MIC ([8]; read-out: MIC on solid medium, LP-0497553-RM23) [µM]
1 | FC(F)(F)c1ccc(CCNc2cc(-c3ccccn3)nc3ncnn23)cc1 [TPN-0006267] | 0.66 ± 0.01 (≈ 0.254 µg/mL) | 1.8 ± 0.57 (≈ 0.692 µg/mL) | 5.9 ± 3.5 (≈ 2.27 µg/mL) | >20 | 10 (≈ 3.84 µg/mL) | >100 | >100 | >100 | 25 (≈ 9.61 µg/mL) | >100 | – | – | – | – | – | – | – | – | – | –
2 | COc1ccc(CCNc2cc(-c3ccccc3)nc3ncnn23)cc1 [TPN-0006218] | 0.94 ± 0.67 (≈ 0.325 µg/mL) | 2 ± 0.99 (≈ 0.691 µg/mL) | 6.8 ± 2.8 (≈ 2.35 µg/mL) | – | – | – | – | – | – | – | – | – | – | – | – | – | – | – | – | –
3 | COc1ccc(CCNc2cc(-c3ccccn3)nc3ncnn23)cc1 [TPN-0006239] | 0.42 ± 0.07 (≈ 0.145 µg/mL) | 0.86 ± 0.21 (≈ 0.298 µg/mL) | 3.4 ± 0.28 (≈ 1.18 µg/mL) | >20 | 11 (≈ 3.81 µg/mL) | – | – | – | – | – | 0.13 ± 0.007 (≈ 0.045 µg/mL) | 25 (≈ 8.66 µg/mL) | 25 (≈ 8.66 µg/mL) | 50 (≈ 17.3 µg/mL) | 50 (≈ 17.3 µg/mL) | 50 (≈ 17.3 µg/mL) | 50 (≈ 17.3 µg/mL) | 50 (≈ 17.3 µg/mL) | 50 (≈ 17.3 µg/mL) | 50 (≈ 17.3 µg/mL)
4 | FC(F)(F)c1ccc(CCNc2cc(-c3ccccc3)nc3ncnn23)cc1 [TPN-0006243] | 0.95 ± 0.29 (≈ 0.364 µg/mL) | 2.7 ± 2.4 (≈ 1.04 µg/mL) | 5.7 ± 2.1 (≈ 2.19 µg/mL) | >20 | >20 | – | – | – | – | – | < 0.39 | – | – | – | – | – | – | – | – | –
5 | Cc1ccc(CCNc2cc(-c3ccccc3)nc3ncnn23)cc1 [TPN-0006245] | 0.92 ± 0.3 (≈ 0.303 µg/mL) | 2 ± 0.07 (≈ 0.659 µg/mL) | 5.6 ± 2.5 (≈ 1.84 µg/mL) | >20 | >20 | – | – | – | – | – | – | – | – | – | – | – | – | – | – | –
